For 18 compounds, T/C results are on record in PubChem BioAssay AID328 (DTP/NCI, 2004).

The assay deals with BDF1 mice, P388 leukemia ip, median survival T/C. The experiment in a line: NCI In Vivo Anticancer Drug Screen. Data for tumor model P388 Leukemia (intraperitoneal) in B6D2F1 (BDF1) mice. The following applies: endpoint: median survival time, higher = longer survival. A digest of the protocol:
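T/C = treated-group survival ÷ vehicle-control survival; tumour transplanted into mice before dosing.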

Where [1] appears, read: dose: 100.0 mg/kg/injection, schedule: Q04DX003 (ip), vehicle: saline with Tween-80.
Where [2] appears, read: dose: 400.0 mg/kg/injection, schedule: Q04DX003 (ip), vehicle: saline with Tween-80.
Setting [3] is: dose: 25.0 mg/kg/injection, schedule: Q01DX009 (ip), vehicle: Klucel (hydroxypropylcellulose) (HPC).
[4] abbreviates: dose: 50.0 mg/kg/injection, schedule: Q01DX009 (ip), vehicle: Klucel (hydroxypropylcellulose) (HPC).
Where [5] appears, read: dose: 100.0 mg/kg/injection, schedule: Q01DX009 (ip), vehicle: Klucel (hydroxypropylcellulose) (HPC).
The mark [6] stands for this setting: dose: 50.0 mg/kg/injection, schedule: Q01DX009 (ip), vehicle: saline with Tween-80.
Setting [7] is: dose: 100.0 mg/kg/injection, schedule: Q01DX009 (ip), vehicle: saline with Tween-80.
[8] abbreviates: dose: 200.0 mg/kg/injection, schedule: Q01DX009 (ip), vehicle: saline with Tween-80.
The mark [9] stands for this setting: dose: 100.0 mg/kg/injection, schedule: Q01DX009 (ip), vehicle: saline.
[10] abbreviates: dose: 200.0 mg/kg/injection, schedule: Q01DX009 (ip), vehicle: saline.

Inconclusive results and toxic doses are left out.

On to `Cc1c2oc3c(C)ccc(C(=O)NC4C(=O)NC(C(C)C)C(=O)N5CCCC5C(=O)N(C)CC(=O)N(C)C(C(C)C)C(=O)OC4C)c3nc-2c(C(=O)NC2C(=O)NC(C(C)C)C(=O)N3CCCC3C(=O)N(C)CC(=O)N(C)C(C(C)C)C(=O)OC2C)c(NCCCO)c1=O` (stereo unspecified), for which the T/C was 150 % of control (dose: 0.05 mg/kg/injection, schedule: Q01DX009 (ip), vehicle: saline + alcohol); 172 % of control (dose: 0.1 mg/kg/injection, schedule: Q01DX009 (ip), vehicle: saline + alcohol); 210 % of control (dose: 0.2 mg/kg/injection, schedule: Q01DX009 (ip), vehicle: saline + alcohol); 169 % of control (dose: 0.3 mg/kg/injection, schedule: Q04DX003 (ip), vehicle: saline + alcohol); 226 % of control (dose: 0.4 mg/kg/injection, schedule: Q01DX009 (ip), vehicle: saline + alcohol); 191 % of control (dose: 0.6 mg/kg/injection, schedule: Q04DX003 (ip), vehicle: saline + alcohol). For the same compound, the T/C was 153 % of control (dose: 0.8 mg/kg/injection, schedule: Q01DX001 (ip), vehicle: saline + alcohol); 285 % of control (dose: 0.8 mg/kg/injection, schedule: Q01DX009 (ip), vehicle: saline + alcohol); 200 % of control (dose: 1.2 mg/kg/injection, schedule: Q04DX003 (ip), vehicle: saline + alcohol); 261 % of control (dose: 2.4 mg/kg/injection, schedule: Q04DX003 (ip), vehicle: saline + alcohol); 207 % of control (dose: 3.2 mg/kg/injection, schedule: Q01DX001 (ip), vehicle: saline + alcohol); 248 % of control (dose: 4.8 mg/kg/injection, schedule: Q04DX003 (ip), vehicle: saline + alcohol). For the setting “dose: 6.4 mg/kg/injection, schedule: Q01DX001 (ip), vehicle: saline + alcohol”, the T/C is 198 % of control.
`Cc1ccccc1OS(=O)(=O)c1ccccc1[N+](=O)[O-]`: the T/C is, setting by setting: (dose: 100.0 mg/kg/injection, schedule: Q01DX001 (ip), vehicle: saline sonified) 100 % of control; (dose: 200.0 mg/kg/injection, schedule: Q01DX001 (ip), vehicle: saline sonified) 110 % of control; (dose: 400.0 mg/kg/injection, schedule: Q01DX001 (ip), vehicle: saline sonified) 105 % of control.
For `O=[N+]([O-])/C=C/c1ccc2ccccc2c1`, the T/C was 116 % of control (dose: 88.0 mg/kg/injection, schedule: Q04DX003 (ip), vehicle: saline sonified); 100 % of control (dose: 100.0 mg/kg/injection, schedule: Q01DX009 (ip), vehicle: saline sonified); 120 % of control under setting [1]; 116 % of control (dose: 132.0 mg/kg/injection, schedule: Q04DX003 (ip), vehicle: saline sonified); 111 % of control (dose: 200.0 mg/kg/injection, schedule: Q04DX003 (ip), vehicle: saline sonified); 116 % of control (dose: 300.0 mg/kg/injection, schedule: Q04DX003 (ip), vehicle: saline sonified). In addition, the T/C under setting [2] is 90 % of control.
For `CC(C)Sc1nc(N)nc2nc[nH]c12`, the T/C is 100 % of control (dose: 6.25 mg/kg/injection, schedule: Q01DX009 (ip), vehicle: Klucel (hydroxypropylcellulose) (HPC)); 105 % of control (dose: 12.5 mg/kg/injection, schedule: Q01DX009 (ip), vehicle: Klucel (hydroxypropylcellulose) (HPC)); 100 % of control under setting [3]; 100 % of control under setting [4]; 105 % of control (dose: 100.0 mg/kg/injection, schedule: Q04DX003 (ip), vehicle: Klucel (hydroxypropylcellulose) (HPC)); 105 % of control (dose: 200.0 mg/kg/injection, schedule: Q04DX003 (ip), vehicle: Klucel (hydroxypropylcellulose) (HPC)).
Take `CCCCCCCCC1SC1CCCCCCCC(=O)OCCN(C)C(=O)CCCCCCCC1SC1CCCCCCCC` (stereo unspecified): the T/C is, setting by setting: (dose: 100.0 mg/kg/injection, schedule: Q04DX003 (ip), vehicle: other) 100 % of control; (dose: 200.0 mg/kg/injection, schedule: Q04DX003 (ip), vehicle: other) 100 % of control; (dose: 400.0 mg/kg/injection, schedule: Q04DX003 (ip), vehicle: other) 100 % of control.
With `C=C(CNC(C)(C)C)C(=O)c1ccccc1`, the T/C was 116 % of control (dose: 3.13 mg/kg/injection, schedule: Q01DX009 (ip), vehicle: saline) and 116 % of control (dose: 6.25 mg/kg/injection, schedule: Q01DX009 (ip), vehicle: saline).
Turning to `COC(COC(N)=O)C1=C(N2CC2)C(=O)C(C)=C(N2CC2)C1=O` (stereo unspecified), the T/C by setting is: (dose: 0.03 mg/kg/injection, schedule: Q01DX009 (ip), vehicle: saline) 123 % of control; (dose: 0.12 mg/kg/injection, schedule: Q01DX009 (ip), vehicle: saline) 154 % of control; (dose: 0.25 mg/kg/injection, schedule: Q01DX009 (ip), vehicle: saline) 190 % of control; (dose: 0.5 mg/kg/injection, schedule: Q01DX009 (ip), vehicle: saline) 258 % of control.
Turning to `O=S(=O)(O)c1ccc(Nc2ccccc2)cc1`, the T/C under setting [5] is 100 % of control and the T/C (dose: 400.0 mg/kg/injection, schedule: Q01DX009 (ip), vehicle: Klucel (hydroxypropylcellulose) (HPC)) is 104 % of control.
`COC(=O)/C(=C/c1ccccc1)c1ccccc1`: the T/C by setting is: under setting [6], 101 % of control; under setting [7], 99 % of control; under setting [8], 96 % of control.
Take `O=C(O)C1CCCN1C(=O)CCS` (stereo unspecified): the T/C was 90 % of control (dose: 50.0 mg/kg/injection, schedule: Q01DX009 (ip), vehicle: saline); 90 % of control under setting [9]; 97 % of control under setting [10].
For `ClC[P+](c1ccccc1)(c1ccccc1)c1ccccc1`, the T/C (dose: 3.0 mg/kg/injection, schedule: Q01DX009 (ip), vehicle: saline) is 120 % of control; the T/C (dose: 6.0 mg/kg/injection, schedule: Q01DX009 (ip), vehicle: saline) was 116 % of control; the T/C (dose: 12.5 mg/kg/injection, schedule: Q04DX003 (ip), vehicle: saline) was 100 % of control.
Regarding `CN1CCN(C(=O)c2ccc(Cl)c(Cl)c2)CC1`, the T/C is, setting by setting: (dose: 3.12 mg/kg/injection, schedule: Q01DX009 (ip), vehicle: saline with Tween-80) 103 % of control; (dose: 6.25 mg/kg/injection, schedule: Q01DX009 (ip), vehicle: saline with Tween-80) 99 % of control; (dose: 12.5 mg/kg/injection, schedule: Q01DX009 (ip), vehicle: saline with Tween-80) 103 % of control; (dose: 12.5 mg/kg/injection, schedule: Q04DX003 (ip), vehicle: saline with Tween-80) 108 % of control; (dose: 25.0 mg/kg/injection, schedule: Q01DX009 (ip), vehicle: saline with Tween-80) 88 % of control; (dose: 25.0 mg/kg/injection, schedule: Q04DX003 (ip), vehicle: saline with Tween-80) 97 % of control. Further, the T/C runs as follows: under setting [6], 99 % of control; (dose: 50.0 mg/kg/injection, schedule: Q04DX003 (ip), vehicle: saline with Tween-80) 91 % of control; under setting [7], 105 % of control; under setting [1], 97 % of control.
Consider `O=C(Nc1ncccn1)C12CC3CC(CC(C3)C1)C2`, for which the T/C by setting is: under setting [6], 88 % of control; under setting [7], 96 % of control; under setting [8], 93 % of control.
For the compound `O=c1ccc2cc(Cl)ccc2[nH]1`, the T/C is 105 % of control (dose: 50.0 mg/kg/injection, schedule: Q01DX001 (ip), vehicle: saline with Tween-80) and 103 % of control (dose: 100.0 mg/kg/injection, schedule: Q01DX001 (ip), vehicle: saline with Tween-80).
For the compound `CC(C)CCOP(=S)(N1CC1)N1CC1`, the T/C under setting [2] was 177 % of control.
Turning to `Cc1cc(C)c(NC(=O)c2ccccc2Cl)c(C)c1`, the T/C reads like this: under setting [1], 100 % of control; (dose: 200.0 mg/kg/injection, schedule: Q04DX003 (ip), vehicle: saline with Tween-80) 109 % of control; under setting [2], 95 % of control.
Take `CN1CCN(CCNc2ccc(CO)c3sc4ccccc4c(=O)c23)CC1`: the T/C reads like this: under setting [3], 120 % of control; under setting [4], 109 % of control; under setting [5], 151 % of control.
As to `CC1(C)OC(=O)CC(=O)O1`, the T/C runs as follows: under setting [9], 105 % of control; (dose: 100.0 mg/kg/injection, schedule: Q04DX003 (ip), vehicle: saline) 91 % of control; under setting [10], 100 % of control; (dose: 200.0 mg/kg/injection, schedule: Q04DX003 (ip), vehicle: saline) 91 % of control; (dose: 400.0 mg/kg/injection, schedule: Q04DX003 (ip), vehicle: saline) 100 % of control.
